In this assay the test system is CEM cells HIV-1 protection, formazan growth assay. The experiment in a line: NCI AIDS Antiviral Assay. The settings on record: for IC50: measured here: growth of uninfected CEM cells. In short, it runs like this:
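Human CEM cells, uninfected and HIV-1-infected, exposed to five drug concentrations; growth measured by soluble formazan assay and scored as percent protection from infection, with protecting compounds retested.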

Experimental findings from PubChem BioAssay AID179 (DTP/NCI, 2004) are described below.

Calls of active or inactive are those of the source.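 How the source made its calls: active means compounds giving half or more protection of infected cells from virus-caused growth loss, again on retest; inactive means the rest.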 *1 amine or outer side, *2 acyl side, *3 side chain or, on linkers, in order; H or OH if unused. Where a SMILES comes first, the peptide text is derived from it. [ ]: non-standard residue; d: D form. X21 = NC(=O)CCC(CN[*:1])C(=O)[*:2]

A word on the EC50: it is the concentration giving half of the maximal effect. Broadly, the IC50 is the concentration that inhibits the measured activity by half. The low end stands for inhibition by little substance, the high end for a need for much substance. Take `C=C1N2[C@@H](CO)[C@H](c3ccccc3)O[C@]2(C)CC[C@]1(C)Cc1ccccc1`: the EC50 was over 200 µM and the IC50 came out at 83.2 µM.
`O=C1CSc2ccccc2-n2cccc21`: the EC50 is over 209 µM and the IC50 amounted to 105 µM.
On to `CC1=NN(c2ccccc2)C(=O)C1=C1SCCS1`, for which the EC50 was over 182 µM and the IC50 is over 182 µM.
With `CCCCCCCCCC(O)CC(=O)c1c(O)cccc1O` (stereo not given), the EC50 was over 200 µM and the concentration for half-maximal inhibition (IC50) was 32.4 µM.
Consider `O=C(O)CC1OC(=O)C(Br)=C1O` (stereo not given), for which the EC50 is over 1050 µM and the IC50 is over 1050 µM.
Consider `CN(C)c1nncc2n[nH]nc12`, for which the EC50 was over 200 µM and the IC50 was over 200 µM.
`CC(C)(C)OC(=O)NC1CC=CCC1NC(=O)OC(C)(C)C` (stereo not given): the EC50 is over 200 µM and the IC50 was over 200 µM.
As to `COc1cccc(/C=N/[N-]C(=O)c2ccncc2)c1[O-].[OH3+].[Zn+2]`, the EC50 was over 2.95 µM and the IC50 was over 2.95 µM.
In the case of `O=C1CCC2(O)c3ccccc3C2Cc2ccccc21` (stereo not given), the EC50 was over 200 µM and the IC50 is over 200 µM.
In the case of `COc1ccc(/C=C/C(=O)c2cc(C)ccc2OC(C)=O)cc1`, the EC50 is over 23.4 µM and the IC50 amounted to 15.8 µM.
As for `CCOC(=O)C1=C(N)SCCC1`, the EC50 was over 1320 µM and the IC50 stood at 257 µM.
Consider `CN(C)CCn1cnc2ncccc2c1=O`, for which the outcome was inactive.
Take `CCC(C)C(NC(=O)C(CCC(N)=O)NC(=O)C1CCCN1)C(=O)NC(C(=O)NC(CC(C)C)C(=O)NC(Cc1c[nH]c2ccccc12)C(=O)NCC(CCC(N)=O)C(=O)NC(CCCN=C(N)N)C(=O)N1CCCC1C(=O)NC(CC(C)C)C(=O)O)C(C)O` (stereo not given) (H-PQITLW[X21]RPL-OH; configuration not given here): the result was inactive.
As to `Cc1nc2ccc(Br)cc2c(=O)n1-c1nnc(C(C)(C)C)s1`, the EC50 is over 200 µM and the IC50 is over 200 µM.
On to `Cc1ccc(S(=O)(=O)N2CCCCC2)cc1`, for which the EC50 was over 200 µM and the IC50 turned out to be 72.4 µM.
Regarding `COc1cc2oc(=O)cc(C)c2c(OC)c1O`, the result was inactive.
Turning to `COC(=O)c1cc(C(=CCC[C@H]2CC[C@@]3(C)C(CCC4C3CC[C@@]3(C)C4CC[C@@H]3C(C)CCCC(C)C)C2)c2cc(Cl)c(O)c(C(=O)OC)c2)cc(Cl)c1O` (stereo not given in full), the EC50 was over 200 µM and the IC50 was over 200 µM.
With `O=[N+]([O-])C(C(Cl)=C(Cl)Cl)=C(N(Cc1ccccc1)Cc1ccccc1)N(Cc1ccccc1)Cc1ccccc1`, the EC50 was over 0.2 µM and the IC50 is over 0.2 µM.
Consider `Cc1cccc(NC(=S)Nc2ccccc2Cl)n1`, for which the EC50 is 141 µM and the half-inhibitory concentration (IC50) is over 200 µM.
On to `COc1cc(CC(=O)O)c(C(=O)c2ccc([N+](=O)[O-])cc2)cc1OC`, for which the EC50 was over 200 µM and the IC50 was over 200 µM.
For the compound `COc1c(OC2OC(CO)C(O)C(O)C2O)cc2c(c1OC)-c1ccc(SC)c(=O)cc1[C@@H](NC(C)=O)CC2` (stereo not given in full), the result was inactive.
With `c1ccc2c(c1)CCN(NCCN1CCCC1)C2`, the outcome was inactive.
In the case of `Cc1cn(C2CC(N=[N+]=[N-])C(COP(=O)(OCC(=O)C(C)(C)C)OCC(=O)C(C)(C)C)O2)c(=O)[nH]c1=O` (stereo not given), the EC50 is 0.0011 µM and the IC50 was 2 µM.
For `Cc1nc2nc[nH]n2c1N=Nc1ccccc1`, the EC50 is over 200 µM and the IC50 was over 200 µM.
In the case of `C/C(O)=C/c1nc2ccccc2[nH]1`, the EC50 is over 1450 µM and the IC50 stood at 1260 µM.
The corresponding values for `Cn1c2ccccc2c(=S)c2c(O)cc3c(c21)C=CC(C)(C)O3` are over 200 µM and over 200 µM.
Turning to `[N-]=[N+]=C(S(=O)(=O)O)S(=O)(=O)O`, the EC50 was over 200 µM and the IC50 was over 200 µM.
Take `Cn1c(=O)c(C(=O)NC(=O)OCc2ccccc2)cn(CCCOC(=O)CCCCCCCCC(=O)OCCCn2cc(C(=O)NC(=O)OCc3ccccc3)c(=O)n(C)c2=O)c1=O`: the EC50 was over 21.4 µM and the IC50 was over 21.4 µM.
For `CC(=O)[CH-]C(C)=O.[CH2-]C.[CH2-]C.[Tl+3]`, the EC50 was over 501 µM and the IC50 was over 501 µM.
Take `CCc1ccc2nccc(NCCCN(C)C)c2c1[N+](=O)[O-]`: the EC50 is over 200 µM and the IC50 is 87.1 µM.
In the case of `COc1ccc(C(c2c(O)c3ccccc3oc2=O)N2CCCC2)cc1` (stereo not given), the EC50 was over 200 µM and the IC50 is 123 µM.
As to `O=C(O)/C=C/c1ccc(Oc2ccccc2C(=O)O)o1`, the EC50 was over 49 µM and the IC50 is over 49 µM.
In the case of `OC1C=CC2C(CC1)C1(c3ccccc3)OC2(c2ccccc2)c2ccccc21` (stereo not given), the outcome was inactive.
On to `C=C1C(OC(=O)C(OC(C)=O)C(c2ccccc2)N(C)C)C[C@H](OC(C)=O)[C@]2(C)C1C(OC(C)=O)[C@@H]1CC(OC(C)=O)C(C)=C([C@@H](OC(C)=O)C2OC(C)=O)C1(C)C` (stereo not given in full), for which the result was inactive.
For `C#CCCCOc1ncccn1`, the EC50 is over 200 µM and the IC50 was over 200 µM.
On to `C[C@H](Nc1nc(N)c(N=O)c(=O)n1C)C(=O)O`, for which the EC50 was over 200 µM and the half-inhibitory concentration (IC50) is over 200 µM.
Take `COc1ccc(-c2cn3ccsc3n2)cc1`: the EC50 was over 195 µM and the IC50 was determined as 162 µM.
For the compound `Nc1ccccc1C(=O)/C=C/c1ccccc1O`, the EC50 is over 74.1 µM and the IC50 came out at 52.5 µM.
As for `O=c1[nH]cnc2c1ncn2[C@@H]1C[C@H]1CO`, the result was inactive.
Regarding `CCN1C(=O)C(N=[N+]=[N-])(c2ccccc2)C(=O)c2ccccc21` (stereo not given), the EC50 was over 200 µM and the IC50 was over 200 µM.
Regarding `CO/C(=N\N=C\c1ccc(OC)cc1OC)c1ccncc1`, the EC50 is over 229 µM and the IC50 was found to be 105 µM.
With `O=C(O)CCc1ccc(NC(=O)CN(CCO)CCO)cc1`, the EC50 is over 200 µM and the IC50 is over 200 µM.
On to `COc1ccc(NC(=O)CSc2nc(C)nc3c2sc(=S)n3-c2ccccc2)cc1`, for which the EC50 is over 200 µM and the IC50 is over 200 µM.
In the case of `O=C(O)CC1NC(/C(=C/c2ccccc2)NC(=O)c2ccccc2)OC1=O` (stereo not given), the EC50 is over 200 µM and the IC50 stood at 9.12 µM.
On to `C/C(=N/NC(=O)c1ccncc1)C(F)(F)F`, for which the result was inactive.
As to `COc1cccc(C(O)C(CN2CCCCC2)CN2CCCCC2)c1` (stereo not given), the EC50 was over 200 µM and the IC50 is over 100 µM.
Turning to `O=C(O)CCSC(=O)Nc1ccc([N+](=O)[O-])cc1`, the result was inactive.
For the compound `Cc1ccc(NC(=S)SCCC(=O)O)cc1`, the outcome was inactive.
As for `CC(C)n1c(=O)n(-c2ccccc2)n(C(C)(C)C)c1=O`, the EC50 is over 200 µM and the IC50 was over 100 µM.
`C=C(C)CC1(O[Si](C)(C)C)C(=O)C(OCC)=C1OCC` (stereo not given): the EC50 is over 200 µM and the IC50 is over 200 µM.
Turning to `N#CC(=N)c1ncn(CCO)c1NC(=O)C(F)(F)F`, the EC50 was over 200 µM and the half-maximal inhibitory concentration (IC50) is over 200 µM.
Consider `O=P1(c2ccccc2)Nc2cc(Cl)c(Cl)cc2N1`, for which the EC50 is over 200 µM and the IC50 worked out at 64.6 µM.
Turning to `Cc1cn(C2CC(OC3CCCCO3)C(CO)O2)c(=O)[nH]c1=O` (stereo not given), the EC50 was over 200 µM and the IC50 was over 200 µM.
For `CC1=C2CCCC2C/C(=N/Nc2ccc([N+](=O)[O-])cc2[N+](=O)[O-])CC1` (stereo not given), the result was inactive.
Turning to `COC1=CC(=O)c2c(O)c3c(c(O)c2C1=O)C[C@](C)(O)C[C@@H]3O`, the result was inactive.
As to `CC(C)(C)[Si](C)(C)OCC1OC(n2ccc(=O)[nH]c2=O)C(O[Si](C)(C)C(C)(C)C)C12OC2C(=O)NO` (stereo not given), the EC50 is over 20 µM and the 50% inhibitory concentration (IC50) came to 1.45 µM.
Consider `N#C/C(=C\c1cc(O)c(O)c(O)c1)C(=O)NCCCCCNC(=O)/C(C#N)=C/c1cc(O)c(O)c(O)c1`, for which the EC50 was over 200 µM and the IC50 was determined as 38 µM.
The corresponding values for `CCCCCCCCCCCCCCCCc1c(C(=O)OC)[nH]c(=S)[nH]c1=O` are over 3.55 µM and over 3.55 µM.
As to `COc1ccc(C)cc1C(=C=C=C=C(c1cc(C)ccc1OC)c1ccccc1OCc1ccccc1)c1ccccc1OCc1ccccc1`, the EC50 was over 44.7 µM and the IC50 is 36.3 µM.
For `C#CC(C)(C)Oc1ccc2c(=O)c(-c3ccccc3)coc2c1`, the EC50 was over 200 µM.
In the case of `O=C1NC(=O)C(C(=O)C(=O)Nc2cccc(C(F)(F)F)c2)C(=O)N1`, the EC50 was over 39.8 µM and the IC50 is over 39.8 µM.
Turning to `O=C1OC(CC(=O)c2ccc(Cl)cc2)C(Cl)=C1Cl` (stereo not given), the EC50 is over 85.1 µM and the IC50 is over 85.1 µM.
In the case of `COCCN1C2=CCCCC2=Nc2c(N)nc(N)nc21`, the result was inactive.
In the case of `O=S(=O)(OC=C1CCCCC1)C(F)(F)F`, the EC50 is over 107 µM and the IC50 was over 107 µM.
Consider `C=C(c1ccccc1)c1ccccc1-c1cc(-c2ccccc2)cc(-c2ccccc2)n1`, for which the EC50 was over 200 µM and the IC50 came out at 25.1 µM.
For the compound `COC(=O)c1cc(C(=CC(=O)O)c2cc(Cl)c(OC)c(C(=O)OC)c2)cc(Cl)c1OC`, the EC50 was over 200 µM and the IC50 turned out to be 95.5 µM.
On the same counts, the results for `CCOC(=O)C(/C(=N/NC(=O)OC)C(=O)Nc1ccc(C(C)=O)cc1)c1cnc2ccccc2n1` (stereo not given) are over 39.8 µM and over 39.8 µM.
Regarding `COc1ccc2c(c1)N1CCc3cc(OC)c(OC)cc3C1C2` (stereo not given), the result was inactive.
`COC(=O)[C@H](Cc1ccccc1)NP(=O)(O)OCC1OC(n2cc(C)c(=O)[nH]c2=O)CC1N=[N+]=[N-]` (stereo not given in full): the concentration giving a half-maximal response (EC50) is 0.0251 µM and the IC50 turned out to be 10 µM.
On to `O=C1CCCC2=C1CC1=C(CCCC1=O)N2c1ccc(Cl)cc1`, for which the EC50 is over 200 µM and the IC50 came out at 105 µM.
The corresponding values for `Cn1c(=O)c2c(nc3n2CCC(=O)N3)n(C)c1=O` are over 251 µM and over 251 µM.
Turning to `Cc1cc(N(CCC#N)CCC#N)ccc1/C=C/C(=O)Nc1cccc(Cl)c1`, the EC50 was over 66.1 µM and the IC50 was over 66.1 µM.
For `Cc1cc(=O)c(C#N)c(C)s1`, the EC50 is over 200 µM and the IC50 is over 200 µM.
